The results in this text go back to patent US7858125B2, “Multi-component biocide composition for wood protection” (priority 2006, dated 2010).

Experiment [1] deals with mixed spore preparation of Aspergillus niger, Penicillium chrysogenum and Trichoderma viride. Briefly: Mold resistance of dip-treated wood stakes (ASTM D4445-91), mixed mold spore inoculum. The conditions noted are these: Example 4; unseasoned southern yellow pine stakes dip-treated 15 s, 4 weeks, 27° C., 70% RH; scale 0-5. The experiment is classed as cell-based. An excerpt:
The biocide compositions were first tested for the efficacy in preventing mold fungal growth. The mold fungi used in the mold growth analysis included Aspergillus niger 2.242 (available from University of Virginia, Charlottesville, Va.), Penicillium chrysogenum PH02 (an isolate provided by Forest Products Laboratory, Madison, Wis.) and Trichoderma viride ATCC 20476 (available from American Type Culture Collection, Rockville, Md.). The mold fungi were first prepared by growing the various mold fungi species on 2% malt agar. A mixed spore preparation was then prepared by washing the surface of a 2-week old culture of each fungus with 10 milliliters of sterile deionized (DI) water according to the American Society for Testing and Materials (ASTM) standard D4445-91 (1998). Spore suspensions were transferred to a spray bottle and diluted to 100 milliliters with DI water. The spray bottle was adjusted to deliver 1 milliliter inoculum/spray.
Specimens (7×20 millimeters cross section by 7 centimeters long) were cut from unseasoned southern yellow pine mill ends from a Mississippi sawmill and stored at 0° C. Average moisture content of the specimens was 48% by weight (n=3). Southern yellow pine oriented strand board (OSB) specimens (11×20 millimeters cross section by 7 centimeters long) were cut from a full sheet of OSB and conditioned to 70% relative humidity. Five replicate specimen stakes were dip-treated for approximately 15 seconds in each biocide composition and held in a covered container overnight according to the ASTM standard test method D4445-91 (1998). Specimens were then arranged over four layers of blotting paper that was saturated with 30 milliliters DI water and a polyethylene mesh spacer in sterile disposable Petri dishes (150×25 millimeters) (commercially available from B-D Falcon, Los Angeles, Calif.). Untreated stakes were dipped in DI water and served as Control A for water-based test chemicals. Additional stakes were dipped in 70% (by weight) ethanol to serve as Control B for test chemicals of low solubility. […]

The test system of experiment [2] is Reticulotermes flavipes (Kollar). The experiment is described as follows: Termite bioassay, no-choice test procedure. The experiment is classed as in vivo. The conditions noted are these: dip-treated southern yellow pine blocks, four weeks; for Termite Bioassay Mortality Rating: 1 gram of termites, 27° C., 80% RH; for Termite Bioassay Attack Rating: visual rating 10 (no attack), 9 light, 7 moderate, 4 heavy, 0 (complete failure). An excerpt:
The biocide compositions were additionally evaluated for their ability to inhibit termite infestation. Specifically, numerous samples of the subterranean termite, Reticulotermes flavipes (Kollar), were collected in Janesville, Wis. for a termite bioassay.
To begin the termite bioassay, pre-weighed and pre-conditioned southern yellow pine blocks (1×1×1 centimeter) (n=5) were dip-treated with either the biocide compositions prepared above or the individual components. Five control samples were prepared by dipping blocks into DI water.
Each block was conditioned to ensure all solvent had dissipated prior to being subjected to a termite bioassay according to no-choice test procedure (ASTM 1998). Each block was then placed in a lidded test dish with 50 grams sand, […] of DI water, and 1 gram of termites. The dishes were incubated at 27° C. and 80% relative humidity for four weeks. The dishes were examined after one and four weeks for tunneling and mortality. The mortality was scaled using a label of “none” (representing a mortality rating of 0%); “slight” (representing a mortality rating of from 1% to 33%); “moderate” (representing a mortality rating of from 34% to 66%) “heavy” (representing a mortality rating of from 67% to 99%); or “complete” (representing a mortality rating of 100%). At the end of the four-week test period, the blocks were removed from the dishes, cleaned, dried, re-conditioned and weighed to determine weight loss of the block, indicating the relative wood consumption of the block by the termites. Additionally, a visual rating of 10 (representing no attack); 9 (representing a light attack); 7 (representing a moderate attack); 4 (representing a heavy attack); or 0 (representing complete failure in inhibiting termite infestation), was recorded for each sample block.

A further experiment relates to G. trabeum. The experiment is described as follows: Soil block test (AWPA E-10-01), brown-rot decay. It is filed as cell-based, Gloeophyllum trabeum MAD 617. As to conditions: vacuum-treated southern yellow pine blocks, 12 weeks (Example 1 text; Example 4, FIG. 1). As for the experimental part:
(§1) In addition to the mold fungi analysis above, the biocide compositions were tested for their efficacy in preventing decay fungal growth. The decay fungi used in the decay fungal growth analysis included Postia placenta MAD 698 (Fries) Lars. & Lomb., Gloeophyllum trabeum MAD 617 (Pers:Fries) Murrill, and Coriolus versicolor MAD 697 (L.:Fr.) Pilat. The decay fungi, all obtained from the Center of Forest Mycology Research (Forest Products Laboratory, Madison, Wis.) were maintained on 2% malt agar.
(§2) To test the biocide compositions' abilities to inhibit decay fungal growth, soil block culture bottles were prepared according to American Wood Preservers' Association (AWPA) E-10-01 (2003). Southern yellow pine feeders were inoculated with two brown-rot fungus, P. placenta and G. trabeum and maple feeders were inoculated with one white-rot fungus, C. versicolor. Bottles were incubated at 27° C. and 70% relative humidity for three weeks until the fungus completely colonized each feeder. […] The blocks were weighed and the average percentage weight loss was calculated. […]
(§3) To test the biocide compositions' abilities to inhibit decay fungal growth, soil block culture bottles were first prepared according to American Wood Preservers' Association (AWPA) E-10-01 (2003). […] The blocks were weighed and the average percentage weight loss was calculated.

The subject of a further experiment is C. versicolor. The experiment is described as follows: Soil block test (AWPA E-10-01), white-rot decay. The conditions noted are these: vacuum-treated southern yellow pine blocks, 12 weeks (Example 1 text; Example 4, FIG. 1). The experiment is classed as cell-based, Coriolus versicolor MAD 697. As to the method:
as §1, §2, §3

In a further experiment the test system is P. placenta. The experiment is described as follows: Soil block test (AWPA E-10-01), brown-rot decay. It is filed as cell-based, Postia placenta MAD 698. The conditions noted are these: vacuum-treated southern yellow pine blocks, 12 weeks (Example 1 text; Example 4, FIG. 1). As to the method:
as §1, §2, §3

The test system of the next experiment is Coptotermes formosans. The experiment is described as follows: Termite bioassay, no-choice test procedure. The conditions noted are these: dip-treated southern yellow pine blocks, 1 gram of termites, four weeks, 27° C., 80% RH. The experiment is classed as in vivo. As for the experimental part:
In this Example, various concentrations of a biocide composition were evaluated for its ability to inhibit termite infestation. The ability of the biocide composition was then compared to the ability of disodium octaborate tetrahydrate, a borate component, alone and an untreated control to inhibit termite infestation. Specifically, samples of the subterranean termite, Coptotermes formosans, were collected at the Formosan Termite Research Facility at McNeill, Miss. for a termite bioassay. To begin the termite bioassay, pre-weighed and pre-conditioned southern yellow pine blocks (1×1×1 centimeter) (n=5) were dip-treated with two concentrations of a biocide composition. A first control sample (Control A) was prepared by dipping blocks into DI water. A second control sample (Control B) was prepared by dipping the blocks into 0.28% (by weight) disodium octaborate tetrahydrate. […] Each block was conditioned to ensure all solvent had dissipated prior to being subjected to a termite bioassay according to no-choice test procedure (ASTM 1998). […] Damp filter paper was placed into the lid of each dish to help maintain humidity during a four-week incubation at 27° C. and 80% relative humidity. The dishes were examined daily and mortality of the termites was recorded. […]

As to `CC(C)c1cccc(O)c(=O)c1` [G, Thujaplicin (isopropyltropolone)], the “Mold Resistance Average Rating, Southern Pine” value (shortened to “Mold Resistance Average Rating”) in experiment [1] was determined as 3.2. In experiment [2], the “Termite Bioassay Mortality Rating” value was “None” and the “Termite Bioassay Attack Rating” value was 0.0.

Thujaplicin (isopropyltropolone): the “Inhibition of decay by G. trabeum, in words” value in the experiment with G. trabeum is given as “did not inhibit decay”. Moreover, the “Inhibition of decay by C. versicolor, in words” value in the experiment on C. versicolor is listed as “did not inhibit decay”. Besides, the “Inhibition of decay by P. placenta, in words” value in the experiment with P. placenta is “did not inhibit decay”.

In the case of `C[C@@H](c1ncncc1F)[C@](O)(Cn1cncn1)c1ccc(F)cc1F` [E, Voriconazole], the “Mold Resistance Average Rating” value in experiment [1] was 0.04. Moreover, in experiment [2], the “Termite Bioassay Mortality Rating” value is recorded as “None” and the “Termite Bioassay Attack Rating” value came out at 0.0.

For `O.O.O.O.O=BOB1OB(OB=O)OB2OB([O-])OB([O-])OB(O1)O2.[Na+].[Na+]` [Control B, disodium octaborate tetrahydrate], in the experiment with Coptotermes formosans, the “Average Weight Loss (%)” value is 4.20%.

For `c1ccc2[nH]c(-c3cscn3)nc2c1` [F, Thiabendazole], the “Mold Resistance Average Rating” value in experiment [1] is listed as 0.0. Further, in experiment [2], the “Termite Bioassay Mortality Rating” value is reported as “None” and the “Termite Bioassay Attack Rating” value amounted to 0.0.
